13 compounds from ChEMBL document CHEMBL2169791, “Strategies for the design of HIV-1 non-nucleoside reverse transcriptase inhibitors: lessons from the development of seven representative paradigms” (J Med Chem, 2012) can be followed below.

A short description of series [1]: Half life in HIV1-infected patient. The format is ADME, organism-based. The note with it: human, in vivo.
Series [2] relates to Human immunodeficiency virus 1. In words: Antiviral activity against HIV1 infected in MT4 cells. The class given is functional, organism-based. The note with it: Human immunodeficiency virus 1, MT4.
Series [3] has as its system Human immunodeficiency virus 1. The series is described as follows: Antiviral activity against HIV1 harboring reverse transcriptase L100I/K103N mutant. The format is functional, organism-based.
Series [4] relates to Human immunodeficiency virus 1. The series is described as follows: Antiviral activity against HIV1 harboring reverse transcriptase L100I mutant. The format is functional, organism-based.
For series [5], the system named is Human immunodeficiency virus 1. The series is described as follows: Antiviral activity against HIV1 harboring reverse transcriptase K103N mutant. The format is functional, organism-based.
Series [6] has as its system Human immunodeficiency virus 1. In words: Antiviral activity against HIV1 harboring reverse transcriptase Y181C mutant. The class given is functional, organism-based.
Series [7] deals with Human immunodeficiency virus 1. The series is described as follows: Antiviral activity against HIV1 harboring reverse transcriptase K103N/Y181C mutant. The class given is functional, organism-based.
Series [8] concerns Human immunodeficiency virus 1. The series is described as follows: Antiviral activity against wild type HIV1. The format is functional, organism-based.
Series [9] relates to Human immunodeficiency virus 1. In words: Antiviral activity against HIV1 harboring reverse transcriptase Y188L mutant. The class given is functional, organism-based.
Series [10] concerns Human immunodeficiency virus 1. The series is described as follows: Antiviral activity against HIV1 3B infected in MT4 cells. The format is functional, organism-based. The conditions noted are these: Human immunodeficiency virus 1, 3B.
Series [11] in a line: Selectivity index, ratio of cytotoxic concentration for human MT4 cells to IC50 for HIV1 3B. The class given is toxicity, cell-based. The conditions noted are these: read-out: Selectivity Index.
For series [12], the system named is Human immunodeficiency virus 1. In words: Ratio of nevirapine EC50 to compound EC50 for HIV1. The class given is functional.
Series [13] in a line: Half life in plasma. The format is ADME, cell-free.
The test system of series [14] is Human immunodeficiency virus 1. The series is described as follows: Antiviral activity against HIV1 infected in human assessed as log reduction in viral load at 800 mg administered QD for 7 days measured on day 8 relative to placebo-control. The format is functional.
In series [15] the test system is Human immunodeficiency virus 1. The series is described as follows: Antiviral activity against HIV1 infected in human assessed as log reduction in viral load at 750 mg administered QD for 7 days measured on day 8 relative to placebo-control. The format is functional.
In series [16] the test system is Human immunodeficiency virus 1. In words: Antiviral activity against HIV1 infected in human assessed as log reduction in viral load at 500 mg administered QD for 7 days measured on day 8 relative to placebo-control. The format is functional.
The test system of series [17] is Human immunodeficiency virus 1. In words: Antiviral activity against HIV1 3B infected in MT4 cells assessed as inhibition of virus-induced cytopathic effect after 5 days by MTT assay. The class given is functional, organism-based. The note with it: Human immunodeficiency virus 1, 3B, MT4, 120 h.
Series [18] deals with Human immunodeficiency virus 1. The series is described as follows: Antiviral activity against HIV1 infected in human assessed as log reduction in viral load at 25 to 150 mg administered QD for 7 days measured on day 8 relative to placebo-control. The format is functional.
Series [19] concerns Human immunodeficiency virus 1. The series is described as follows: Antiviral activity against HIV1 infected in human assessed as viral copies at 25 to 150 mg. The format is functional.
The nature of series [20]: Half life in HIV-infected patient plasma. The class given is ADME, organism-based. The conditions noted are these: human.

As a reminder, the half-life is the time needed for the level to fall by half in the phase considered. By pIC50 is commonly meant the negative decadic logarithm of the IC50, by convention in mol/L. Broadly, the IC50 is the concentration that inhibits the measured activity by half. Higher therefore signals lower potency. What is called EC50 is the concentration giving half of the maximal effect.

The structures appear in SMILES notation. pIC50: −log10 of the molar value. In brackets after ≈: the same amount, converted by molar mass.

Take `O=C(CSc1nnc(Br)n1-c1ccc(C2CC2)c2ccccc12)Nc1ccc(C(=O)[O-])cc1Cl.[K+]`: in series [1], the half-life is 11 h.
`Cc1cc(S(N)(=O)=O)ccc1NC(=O)COc1ccc(Cl)cc1C(=O)c1cc(F)cc(C(F)(F)F)c1`: in series [2], the pIC50 is 9.30.
Turning to `CCN(CC)CCOc1ccc(NC(=O)COc2ccccc2C(=O)c2ccc(OC)cc2)cc1`, it took 10 µg/mL to reach half-maximal inhibition in series [2] (IC50).
As for `Cc1cc(C#N)cc(C)c1Oc1nc(Nc2ccc(C#N)cc2)ncc1Br`, the pIC50 in series [3] is 7.31; in series [4], 8.18; in [5], 8.85; in series [6], 7.66; in [7] it was 7.60; in series [8] it was 8.85. The same compound gave a pIC50 in series [9] of 8.23.
Compound `CC(C)=CCN1Cc2cccc3[nH]c(=S)n(c23)C[C@@H]1C` had a pIC50 in series [10] of 7.55. Besides, the selectivity ratio in [11] worked out at 31100.
In the case of `Cc1cc(C#N)cc(C)c1Oc1ccnc(Nc2ccc(C#N)cc2)n1`, the pIC50 in series [3] is 6.10; in series [4] it was 7.14; in [5] it was 8.57; in series [6], 7.43; in series [7], 7.03; in [8], 8.96. In addition, the pIC50 in series [9] is 7.72.
Turning to `CCN1c2ncc(CCOc3cc[n+]([O-])c4ccccc34)cc2C(=O)N(C)c2cccnc21` [BILR 355], the “Ratio EC50” value in series [12] is over 10. For the same compound, the midpoint of the response in series [8], the EC50, lay at 0.00026 µg/mL (≈ 0.589 nM).
Take `Cc1cc(C#N)cc(C)c1Oc1nc(Nc2ccc(C#N)cc2)nc(N)c1Br` [ETRAVIRINE]: the values for the pIC50 in series [3], in series [7] and in series [8] were 7.72, 8.37 and over 8.00, respectively. Also, in series [13], the half-life was 30 h.
As to `CO[P@](=O)(c1cc(C)cc(/C=C/C#N)c1)c1c(C(N)=O)[nH]c2ccc(Cl)cc12` [FOSDEVIRINE], the FC in series [14] worked out at 2.1.
With `CCc1nn(CCO)c(CC)c1Oc1cc(C#N)cc(C#N)c1` [LERSIVIRINE], the results for the FC in [15] and in [16] were 2 and 1.9, respectively.
As for `CC(=O)c1ccc(C)cc1NC(C(N)=O)c1c(Cl)cccc1Cl` (centres undefined) [LOVIRIDE], in series [17], the pIC50 was 7.89.
Turning to `Cc1cc(/C=C/C#N)cc(C)c1Nc1ccnc(Nc2ccc(C#N)cc2)n1` [RILPIVIRINE], the FC in [18] was 1.199. Also, in [19], the Activity was under 50 mL⁻¹. For the same compound, the half-life in [20] was 48 h.
For `Cc1cn([C@H]2C[C@H](N=[N+]=[N-])[C@@H](CO)O2)c(=O)[nH]c1=O` [ZIDOVUDINE], in series [10], the pIC50 is 8.82. The selectivity ratio in [11] was determined as 6200.
